Usually melting point stands for the temperature, or range, at which the solid turns liquid.

In the case of `O=C(Cc1nnc(Nc2ccccc2)o1)NC1CCN(Cc2ccc(Cl)c(Cl)c2)CC1` [Compound No. 1 of Table I, N-[1-(3,4-Dichlorobenzyl)-piperidin-4-yl]-2-(5-phenylamino-[1,3,4]oxadiazol-2-yl)-acetamide], the melting point lay within 191 to 217 °C.

For the compound `O=C(Cc1csc(Nc2ccccc2)n1)NC1CCN(Cc2ccc(Cl)c(Cl)c2)CC1` [Compound No. 1 of Table V, 2-(2-Anilino-1,3-thiazol-4-yl)-N-[1-(3,4-dichlorobenzyl)piperidin-4-yl]acetamide], the melting point is 191 to 192 °C.

As to `O=C(CCc1nnc(Nc2ccccc2Cl)o1)NC1CCN(Cc2ccc(Cl)c(Cl)c2)CC1` [Compound No. 6 of Table I, 3-[5-(2-chloro-phenylamino)-[1,3,4]oxadiazol-2-yl]-N-[1-(3,4-dichloro-benzyl)-piperidin-4-yl]-propionamide], the melting point was in the range of 154 to 156 °C.

With `O=C(CCc1nnc(Nc2ccccc2Cl)o1)NC1CCN(Cc2ccc(F)c(F)c2)CC1` [Compound No. 22 of Table I, 3-[5-(2-chloro-phenylamino)-[1,3,4]oxadiazol-2-yl]-N-[1-(3,4-difluorobenzyl)-piperidin-4-yl]-propionamide], the melting point fell in the range of 162 to 163 °C.
